pIC50: −log10 of the molar value. One block for each molecule: values may come before it. Active and inactive are the calls of the source. No cut-off for these calls is given here.
What was measured:
Mus musculus [1] = test: Anti-inflammatory activity in Swiss mouse assessed as inhibition of LPS-induced protein extravasation in thoracic cavity at 100 mg/kg, ip pretreated for 1 hr followed by LPS stimulation and measured after 24 hrs; assay type: functional, organism-based
Mus musculus [2] = test: Anti-inflammatory activity in Swiss mouse assessed as inhibition of LPS-induced pleural accumulation in eosiniphils at 100 mg/kg, ip pretreated for 1 hr followed by LPS stimulation and measured after 24 hrs by May-Grunwald-Giemsa staining-based Neubauer chamber based optical microscopy; assay type: functional, organism-based
Mus musculus [3] = test: Anti-inflammatory activity in Swiss mouse assessed as inhibition of LPS-induced nitric oxide production in pleural washes at 100 ng/kg, ip pretreated for 1 hr followed by LPS stimulation measured after 24 hrs by Lowry/Griess analysis; assay type: functional, organism-based
Mus musculus [4] = test: Anti-inflammatory activity in Swiss mouse assessed as inhibition of LPS-induced pleural accumulation in total leucocytes at 100 mg/kg, ip pretreated for 1 hr followed by LPS stimulation and measured after 24 hrs by May-Grunwald-Giemsa staining-based Neubauer chamber based optical microscopy; assay type: functional, organism-based
P2X purinoceptor 7 [5] = molecular target: T1, P2X purinoceptor 7 (Mus musculus, UniProt Q9Z1M0); test: Antagonist activity at P2X7 receptor in Swiss mouse peritoneal macrophages assessed as inhibition of BzATP-induced current at holding potential of -60 mV preincubated for 5 mins followed by BzATP addition measured after 5 mins by Whole cell patch-clamp analysis
T1 sequence (Q9Z1M0 whole entry): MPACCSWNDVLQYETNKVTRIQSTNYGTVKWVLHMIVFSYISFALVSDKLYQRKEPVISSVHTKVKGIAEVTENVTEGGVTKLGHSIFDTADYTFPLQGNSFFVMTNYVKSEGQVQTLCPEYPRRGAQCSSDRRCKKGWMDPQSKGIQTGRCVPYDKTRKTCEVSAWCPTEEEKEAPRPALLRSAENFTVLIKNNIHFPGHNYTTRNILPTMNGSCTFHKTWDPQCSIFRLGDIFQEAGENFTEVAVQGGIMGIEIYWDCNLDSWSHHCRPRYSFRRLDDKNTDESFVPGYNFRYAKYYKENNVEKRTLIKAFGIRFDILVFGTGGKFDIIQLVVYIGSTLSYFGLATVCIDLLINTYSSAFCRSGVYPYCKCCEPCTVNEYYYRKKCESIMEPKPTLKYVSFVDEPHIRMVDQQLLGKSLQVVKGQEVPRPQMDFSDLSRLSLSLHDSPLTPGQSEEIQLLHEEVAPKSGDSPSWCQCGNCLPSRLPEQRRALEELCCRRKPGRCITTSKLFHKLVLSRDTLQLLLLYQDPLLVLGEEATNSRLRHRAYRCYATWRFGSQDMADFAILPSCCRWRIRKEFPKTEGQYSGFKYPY

Mus musculus [6] = test: Anti-inflammatory activity in po dosed Swiss Webster mouse assessed as inhibition of ATP-induced paw edema pretreated for 60 mins followed by ATP administration and measured after 30 mins; assay type: functional
[7] = molecular target: T2, P2X purinoceptor 7 (Homo sapiens) (UniProt Q99572); test: (§1) Antagonist activity at P2X7 receptor in LPS/IFNc-differentiated human THP-1 cells assessed as inhibition of ATP-induced IL-1beta release preincubated for 30 mins followed by LPS stimulation for 4 hrs using cells treated with ATP for 30 mins by ELISA; assay type: cell-based
T2 sequence (whole entry): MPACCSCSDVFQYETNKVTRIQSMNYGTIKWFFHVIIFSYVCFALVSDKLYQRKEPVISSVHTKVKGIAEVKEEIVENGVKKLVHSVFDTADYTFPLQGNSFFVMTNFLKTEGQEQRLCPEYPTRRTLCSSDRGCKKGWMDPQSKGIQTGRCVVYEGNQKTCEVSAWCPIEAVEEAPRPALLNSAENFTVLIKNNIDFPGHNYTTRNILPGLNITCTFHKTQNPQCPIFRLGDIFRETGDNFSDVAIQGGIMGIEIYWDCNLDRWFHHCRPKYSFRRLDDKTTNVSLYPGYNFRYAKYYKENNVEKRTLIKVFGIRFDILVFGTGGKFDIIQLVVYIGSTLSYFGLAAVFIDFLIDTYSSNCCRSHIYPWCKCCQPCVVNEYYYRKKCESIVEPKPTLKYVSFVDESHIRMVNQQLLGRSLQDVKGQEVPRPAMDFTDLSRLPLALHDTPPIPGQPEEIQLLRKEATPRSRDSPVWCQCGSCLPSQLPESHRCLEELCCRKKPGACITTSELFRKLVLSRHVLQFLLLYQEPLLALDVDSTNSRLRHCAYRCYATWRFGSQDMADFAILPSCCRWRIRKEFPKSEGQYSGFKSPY

P2X purinoceptor 7 [8] = molecular target: T3, P2X purinoceptor 7 (Homo sapiens, UniProt Q99572); test: as §1; assay type: cell-based
T3 sequence (Q99572 whole entry): T2 sequence (whole entry)

[9] = molecular target: T4, P2X purinoceptor 7 (Mus musculus) (UniProt Q9Z1M0); test: Antagonist activity at mouse P2X7 receptor expressed in HEK293 cells assessed as inhibition of ATP-induced ethidium iodide uptake at 10 uM preincubated for 10 mins followed by ATP addition measured after 20 mins by FLIPR assay relative to 1 mM ATP; assay type: cell-based
T4 sequence (whole entry): T1 sequence (Q9Z1M0 whole entry)

Mus musculus [10] = test: Anti-inflammatory activity in ip dosed Swiss Webster mouse assessed as inhibition of ATP-induced paw edema pretreated for 60 mins followed by ATP administration and measured after 30 mins; assay type: functional
[11] = Cytotoxicity against Swiss mouse peritoneal macrophages after 24 hrs by LDH-release assay; assay type: cell-based, Peritoneal macrophage
Mus musculus [12] = test: Anti-inflammatory activity in Swiss mouse assessed as inhibition of LPS-induced pleural accumulation in total leucocytes at 1 to 100 ng/kg, ip pretreated for 1 hr followed by LPS stimulation and measured after 24 hrs by May-Grunwald-Giemsa staining-based Neubauer chamber based optical microscopy; assay type: functional, organism-based
[13] = molecular target: T2, P2X purinoceptor 7 (Homo sapiens); test: Antagonist activity at human P2X7 receptor expressed in HEK293 cells assessed as inhibition of ATP-induced ethidium iodide uptake at 10 uM preincubated for 10 mins followed by ATP addition measured after 20 mins by FLIPR assay relative to 1 mM ATP; assay type: cell-based
[14] = Kinetic solubility in pH 4 citrate buffer at 1 to 250 uM after 2 hrs; assay type: physicochemical; settings: read-out: Kinetic_solubility
Mus musculus [15] = test: Anti-inflammatory activity in po dosed Swiss Webster mouse assessed as inhibition of carrageenan-induced paw edema pretreated for 60 mins followed by carrageenan administration and measured after 60 mins; assay type: functional
P2X purinoceptor 7 [16] = molecular target: T1, P2X purinoceptor 7; test: (§2) Antagonist activity at P2X7 receptor in Swiss mouse peritoneal macrophages assessed as inhibition of ATP-induced propidium iodide uptake after 25 mins by flow cytometric analysis
[17] = molecular target: T4, P2X purinoceptor 7 (Mus musculus); test: as §2
[18] = Kinetic solubility in pH 10 sodium hydroxide buffer at 1 to 250 uM after 2 hrs; assay type: physicochemical; settings: read-out: Kinetic_solubility
[19] = Apparent permeability across apical to basolateral side in human Caco2 cells at 100 uM after 60 mins by lucifer yellow dye-based fluorescence assay; assay type: ADME, cell-based; settings: Caco-2
[20] = Intrinsic clearance in mouse liver microsomes assessed per mg protein at 1 uM measured up to 45 mins; assay type: ADME, microsome; settings: read-out: CLH
P2X purinoceptor 7 [21] = molecular target: T3, P2X purinoceptor 7; test: Antagonist activity at human P2X7 receptor in PMA-differentiated THP-1 macrophages assessed as inhibition of ATP-induced IL-1beta release preincubated for 30 mins followed by ATP addition measured after 30 mins by ELISA

SMILES: O=C(O)Cc1ccccc1Nc1c(Cl)cccc1Cl [DICLOFENAC]
Activity (Mus musculus [1]): inactive
Activity (Mus musculus [2]): inactive
Activity (Mus musculus [3]): inactive
Activity (Mus musculus [4]): Active

pIC50 (P2X purinoceptor 7 [5]): 7.39
Activity [7]: Dose-dependent effect
pIC50 (P2X purinoceptor 7 [8]): 7.17
inhibition [9]: Active
inhibition [13]: 96.9%
solubility kinetic at 2 h [14]: < 250 µM
pIC50 (P2X purinoceptor 7 [16]): 7.08
inhibition [17]: Dose-dependent effect
solubility kinetic at 2 h [18]: < 250 µM
Papp A→B at 1 h, 100 µM [19]: 77.4 ×10⁻⁶ cm/s
microsomal CLint at 1 µM [20]: 22.2 µL/min/mg
pIC50 (P2X purinoceptor 7 [21]): 7.17
SMILES: CCOCc1cn(-c2ccc(Cl)cc2)nn1
ID50 (Mus musculus [6]): 0.06859 µg/kg
ID50 (Mus musculus [10]): 0.07984 µg/kg
CC50 at 24 h [11]: 4030 nM
Activity (Mus musculus [12]): Active
ID50 (Mus musculus [15]): 0.08049 µg/kg
